The test system of assay [1] is Male Zucker diabetic fatty (fa/fa) rats. Nature of the assay: Chronic troglitazone treatment of Zucker diabetic fatty rats, Northern blots of white adipose tissue. The conditions noted are these: 6 mg/kg/day in food, after 4 and 20 weeks of treatment. The class given is in vivo, rat. The procedure:
This experiment describes analysis of FDRG mRNA levels in rats following chronic troglitazone treatment to determine if FDRG expresion is regulated by PPARγ in vivo. Male Zucker diabetic fatty (fa/fa) rats were treated with 6 mg/kg/day (1.2% w/v) troglitazone or placebo admixed with food starting at 6 weeks of age and continuing until 26 weeks. […] Northern blots were performed on RNA isolated from white adipose tissue of treated and untreated animals, four from each group, after 4 and 20 weeks of treatment. […] This was true even when normalized to aP2, a fat cell marker. Glut4 mRNA was also found to be elevated, in agreement with published reports by other groups. Ribosomal-associated 36B4 served as a loading control.

The subject of assay [2] is FDRG mRNA in NIH3T3 fibroblasts stably expressing PPARγ. Put plainly: Northern blot of FDRG mRNA in NIH3T3 fibroblasts stably expressing PPARγ. The class given is cell-based, murine. The procedure: NIH3T3 fibroblasts stably expressing PPARγ were treated with 10 μg/ml pioglitazone for 0, 2, and 4 hours.
Assay [3] has as its system lean or ob/ob mice. Put plainly: Intraperitoneal leptin administration versus pair-fed mice, FDRG expression in brown fat. In kind it is in vivo, mouse. The conditions noted are these: 12.5 mg/kg leptin i.p. twice daily. The procedure:
In this study, 10 week old lean or ob/ob mice were divided into three groups. The first group was the control, intraperitoneally injected with 1.5 ml PBS twice daily. […] The third group, the pair-fed group, was diet restricted to match the amount of food intake by the leptin-injected group, and was also injected with PBS. The animals were sacrified at the end of one week. […] That may reflect a fundamental difference in leptin-induced dietary restriction versus externally imposed restriction, or may be consistent with a further downstream effect, e.g., leptin-mediated suppression of FDRG upregulation that would ordinarily result from reduced food intake.

A value given as a limit tells only on which side of the number the result lay.

Take `Cc1c(C)c2c(c(C)c1O)CCC(C)(COc1ccc(CC3SC(=O)NC3=O)cc1)O2` (stereo not drawn) [troglitazone]: in assay [1], the “FDRG expression in vivo, upregulation versus controls” value is 3-5 fold. As for `C[C@@H]1C[C@@H]([C@H](O)CC2CC(=O)NC(=O)C2)C(=O)[C@@H](C)C1` [cycloheximide], in assay [2] (5 μg/ml cycloheximide alone), the “Effect on FDRG mRNA by itself” value is recorded as “causes a rise in FDRG mRNA”. In assay [2] (pre-treatment with 5 μg/ml cycloheximide, then 10 μg/ml pioglitazone), the “Effect of pre-treatment on pioglitazone induction of FDRG mRNA” value is on record as “does not block this induction”. Consider `CCc1ccc(CCOc2ccc(CC3SC(=O)NC3=O)cc2)nc1` (stereo not drawn) [pioglitazone], for which, in assay [2] (10 μg/ml pioglitazone, within two hours, versus untreated cells), the “Increase in FDRG mRNA” value was at least 10 fold. Turning to “leptin: a protein secreted by fat cells, metabolic hormone”, the Dietary intake result in assay [3] was “decrease in dietary intake”. In assay [3] (one week, versus pair-fed group), the “FDRG expression in brown fat (rise seen with restriction of caloric intake)” value is recorded as “this rise is not seen”.

Source of the values: US20050100940A1, “Novel FDRG protein and nucleic acid molecules and uses therefor” (Millennium Pharmaceuticals, Inc., priority 1998, published 2005).
